Patent publication US4571396A, “Antibacterial agents” (Warner-Lambert Company, priority 1985, dated 1986)
In brackets after ≈: the same amount, converted by molar mass. Structures can show the parent of a compound that is named as a salt. Where two headings read alike, the source gives them in different places.

Key:
Experiment in all cases: In vitro antibacterial activity, microtitration dilution method (MIC)
Assay type in all cases: cell-based
Escherichia coli Vogel = conditions: read-out: Minimal Inhibitory Concentration MIC
From the text: (§1) Agents & Chemoth., 6, 124 (1974), which is incorporated herein by reference.

[1] = test system: Pseudomonas aeruginosa UI-18
From the text: as §1

[2] = test system: Streptococcus pneumoniae SV-1
From the text: as §1

[3] = test system: Staphylococcus aureus UC-76
From the text: as §1

Proteus rettgeri M 1771 = conditions: Providencia rettgeri
From the text: as §1

[4] = test system: Streptococcus pyogenes C-203
From the text: as §1

[5] = test system: Enterobacter cloacae MA 2646
From the text: as §1

[6] = test system: Streptococcus faecalis MGH-2; conditions: Enterococcus faecalis
From the text: as §1

[7] = test system: Klebsiella pneumoniae MGH-2
From the text: as §1

[8] = test system: Staphylococcus aureus H 228; conditions: H228, read-out: Minimal Inhibitory Concentration MIC
From the text: The compounds of the invention display antibacterial activity when tested by the microtitration dilution method as described in Heifetz, et al, Antimicr. Agents & Chemoth., 6, 124 (1974), which is incorporated herein by reference.
By use of the above reference method, the followed minimum inhibitory concentration value (MICs in μg/ml) shown in the table were obtained for representative compounds of the invention.

[9] = UI18, Pseudomonas aeruginosa UI-18, in vitro, read-out: Minimal Inhibitory Concentration MIC
[10] = SV1, Streptococcus pneumoniae SV-1, in vitro, read-out: Minimal Inhibitory Concentration MIC
[11] = UC76, Staphylococcus aureus UC-76, in vitro, read-out: Minimal Inhibitory Concentration MIC
[12] = M1771, Proteus rettgeri M 1771, in vitro, read-out: Minimal Inhibitory Concentration MIC
[13] = C203, Streptococcus pyogenes C-203, in vitro, read-out: Minimal Inhibitory Concentration MIC
[14] = MA2646, Enterobacter cloacae MA 2646, in vitro, read-out: Minimal Inhibitory Concentration MIC
[15] = MGH2, Streptococcus faecalis MGH-2, in vitro, read-out: Minimal Inhibitory Concentration MIC
[16] = MGH2, Klebsiella pneumoniae MGH-2, in vitro, read-out: Minimal Inhibitory Concentration MIC

Row | Compound | MIC (Escherichia coli Vogel) [µg/mL] | MIC [1, 9] [µg/mL] | MIC [2, 10] [µg/mL] | MIC [3, 11] [µg/mL] | MIC (Proteus rettgeri M 1771; [12]) [µg/mL] | MIC [4, 13] [µg/mL] | MIC [5, 14] [µg/mL] | MIC [6, 15] [µg/mL] | MIC [7, 16] [µg/mL] | MIC [8] [µg/mL] | MIC ([2]; Streptococcus pneumoniae, SV1, read-out: Minimal Inhibitory Concentration MIC) [µg/mL] | MIC ([4]; Streptococcus pyogenes, C203, read-out: Minimal Inhibitory Concentration MIC) [µg/mL] | MIC ([5]; Enterobacter cloacae, MA2646, read-out: Minimal Inhibitory Concentration MIC) [µg/mL] | MIC (Proteus rettgeri M 1771; M1771, read-out: Minimal Inhibitory Concentration MIC) [µg/mL] | MIC ([1]; Pseudomonas aeruginosa, UI18, read-out: Minimal Inhibitory Concentration MIC) [µg/mL] | MIC ([6]; MGH2, read-out: Minimal Inhibitory Concentration MIC) [µg/mL] | MIC ([7]; Klebsiella pneumoniae, MGH2, read-out: Minimal Inhibitory Concentration MIC) [µg/mL] | MIC ([3]; Staphylococcus aureus, UC76, read-out: Minimal Inhibitory Concentration MIC) [µg/mL]
1 | CCn1cc(C(=O)O)c(=O)c2cc(F)c(N3CC4CCC3CN4)c(F)c21 (stereo not drawn) [Ex. 2, 7-(2,5-Diazabicyclo[2.2.2]oct-2-yl)-1-ethyl-6,8-difluoro-1,4-dihydro-4-oxo-3-quinolinecarboxylic acid] | 0.1 (≈ 0.275 µM) | 0.4 (≈ 1.1 µM) | 0.8 (≈ 2.2 µM) | ≤ 0.1 | 0.8 (≈ 2.2 µM) | 0.4 (≈ 1.1 µM) | 0.2 (≈ 0.55 µM) | 1.6 (≈ 4.4 µM) | 0.4 (≈ 1.1 µM) | 0.4 (≈ 1.1 µM) | – | – | – | – | – | – | – | –
2 | O=C(O)c1cn(C2CC2)c2c(F)c(N3CC4CCC3CN4)c(F)cc2c1=O (stereo not drawn) [Ex. 3, 7-(2,5-Diazabicyclo[2.2.2]oct-2-yl)-1-cyclopropyl-6,8-difluoro-1,4-dihydro-4-oxo-3-quinolinecarboxylic acid] | 0.05 (≈ 0.133 µM) | 0.8 (≈ 2.13 µM) | – | 0.025 (≈ 0.0666 µM) | 0.8 (≈ 2.13 µM) | – | – | 1.6 (≈ 4.26 µM) | 0.1 (≈ 0.266 µM) | 0.4 (≈ 1.07 µM) | 1.6 (≈ 4.26 µM) | 0.8 (≈ 2.13 µM) | 0.05 (≈ 0.133 µM) | – | – | – | – | –
3 | O=C(O)c1cn(C2CC2)c2nc(N3CC4CCC3CN4)c(F)cc2c1=O (stereo not drawn) [Ex. 6a, 7-(2,5-diazabicyclo[2.2.2]oct-2-yl)-1-cyclopropyl-6-fluoro-1,4-dihydro-4-oxo-1,8-naphthyridine-3-carboxylic acid] | 0.1 (≈ 0.279 µM) | 0.2 (≈ 0.558 µM) | 0.4 (≈ 1.12 µM) | 0.006 (≈ 0.0167 µM) | 0.4 (≈ 1.12 µM) | 0.4 (≈ 1.12 µM) | 0.1 (≈ 0.279 µM) | 0.4 (≈ 1.12 µM) | 0.05 (≈ 0.14 µM) | 0.05 (≈ 0.14 µM) | – | – | – | – | – | – | – | –
4 | O=C(O)c1cn(C2CC2)c2c(F)c(N3CC4CC3CN4)c(F)cc2c1=O (stereo not drawn) [Ex. 7d, 1-cyclopropyl-7-[2,5-diazabicyclo(2.2.1)hept-2-yl]-6,8-difluoro-1,4-dihydro-4-oxo-3-quinolinecarboxylic acid] | 0.05 (≈ 0.138 µM) | 0.2 (≈ 0.553 µM) | 1.6 (≈ 4.43 µM) | 0.2 (≈ 0.553 µM) | – | 0.2 (≈ 0.553 µM) | 0.1 (≈ 0.277 µM) | 0.8 (≈ 2.21 µM) | 0.1 (≈ 0.277 µM) | 0.8 (≈ 2.21 µM) | – | – | – | 0.1 (≈ 0.277 µM) | – | – | – | –
5 | CN1CC2CC1CN2c1nc2c(cc1F)c(=O)c(C(=O)O)cn2C1CC1 (stereo not drawn) [Ex. 10b, 1-cyclopropyl-6-difluoro-1,4-dihydro-7-(5-methyl-2,5-diazabicyclo[2.2.1]hept-2-yl)-4-oxo-1,8-naphthyridine-3-carboxylic acid monohydrochloride] | 0.05 | – | 0.4 | 0.1 | 0.4 | 0.4 | – | – | 0.05 | 0.4 | – | – | – | – | 0.4 | 0.8 | – | –
6 | O=C(O)c1cn(C2CC2)c2nc(N3CCN4CCC3C4)c(F)cc2c1=O (stereo not drawn) [Ex. 14] | 0.05 (≈ 0.14 µM) | 0.8 (≈ 2.23 µM) | 0.8 (≈ 2.23 µM) | 0.1 (≈ 0.279 µM) | 0.4 (≈ 1.12 µM) | 0.4 (≈ 1.12 µM) | 0.1 (≈ 0.279 µM) | 0.8 (≈ 2.23 µM) | – | 0.8 (≈ 2.23 µM) | – | – | – | – | – | – | 0.1 (≈ 0.279 µM) | –
7 | CCn1cc(C(=O)O)c(=O)c2cc(F)c(N3CCN4CCC3C4)c(F)c21 (stereo not drawn) [Ex. 16, 7-(1,4-Diazabicyclo[3.2.1]oct-4-yl)-1-ethyl-6,8-difluoro-1,4-dihydro-4-oxo-3-quinolinecarboxylic acid] | – | 0.4 (≈ 1.1 µM) | 0.8 (≈ 2.2 µM) | 0.1 (≈ 0.275 µM) | 0.2 (≈ 0.55 µM) | 0.4 (≈ 1.1 µM) | 0.5 (≈ 1.38 µM) | 0.8 (≈ 2.2 µM) | 0.1 (≈ 0.275 µM) | 0.4 (≈ 1.1 µM) | – | – | – | – | – | – | – | –
8 | O=C(O)c1cn(C2CC2)c2c(F)c(N3CCN4CCC3C4)c(F)cc2c1=O (stereo not drawn) [Ex. 17, 1-Cyclopropyl-7-(1,4-diazabicyclo[3.2.1]oct-4-yl)-6,8-difluoro-1,4-dihydro-4-oxo-3-quinolinecarboxylic acid] | 0.05 (≈ 0.133 µM) | 0.4 (≈ 1.07 µM) | 0.4 (≈ 1.07 µM) | 0.025 (≈ 0.0666 µM) | 0.2 (≈ 0.533 µM) | 0.1 (≈ 0.266 µM) | 0.025 (≈ 0.0666 µM) | 0.2 (≈ 0.533 µM) | 0.05 (≈ 0.133 µM) | 0.4 (≈ 1.07 µM) | – | – | – | – | – | – | – | –
9 | CCn1cc(C(=O)O)c(=O)c2cc(F)c(N3[C@@H]4CC[C@H]3C[C@H](N)C4)nc21 [Ex. 20, 7-(3-(Exo-amino)-8-azabicyclo[3.2.1]oct-8-yl]-1-ethyl-6-fluoro-1,4-dihydro-4-oxo-1,8-naphthyridine-3-carboxylic acid, hydrochloride] | 0.4 | 0.8 | 0.4 | – | 0.8 | 0.4 | 0.8 | 0.8 | 0.4 | 0.4 | – | – | – | – | – | – | – | 0.2

Second part, led by results:

Row | MIC (Escherichia coli Vogel) [µg/mL] | MIC [1, 9] [µg/mL] | MIC [2, 10] [µg/mL] | MIC [3, 11] [µg/mL] | MIC (Proteus rettgeri M 1771; [12]) [µg/mL] | MIC [4, 13] [µg/mL] | MIC [5, 14] [µg/mL] | MIC [6, 15] [µg/mL] | MIC [7, 16] [µg/mL] | MIC [8] [µg/mL] | Compound | MIC ([2]; Streptococcus pneumoniae, SV1, read-out: Minimal Inhibitory Concentration MIC) [µg/mL] | MIC ([4]; Streptococcus pyogenes, C203, read-out: Minimal Inhibitory Concentration MIC) [µg/mL] | MIC ([5]; Enterobacter cloacae, MA2646, read-out: Minimal Inhibitory Concentration MIC) [µg/mL] | MIC (Proteus rettgeri M 1771; M1771, read-out: Minimal Inhibitory Concentration MIC) [µg/mL] | MIC ([1]; Pseudomonas aeruginosa, UI18, read-out: Minimal Inhibitory Concentration MIC) [µg/mL] | MIC ([6]; MGH2, read-out: Minimal Inhibitory Concentration MIC) [µg/mL] | MIC ([7]; Klebsiella pneumoniae, MGH2, read-out: Minimal Inhibitory Concentration MIC) [µg/mL] | MIC ([3]; Staphylococcus aureus, UC76, read-out: Minimal Inhibitory Concentration MIC) [µg/mL]
10 | 0.1 | – | 0.8 | 0.2 | 0.2 | 0.2 | 0.05 | 0.8 | 0.05 | 0.8 | Cl.O=C(O)c1cn(C2CC2)c2nc(N3CC4CC3CN4)c(F)cc2c1=O (stereo not drawn) [Ex. 7c, 1-cyclopropyl-7-[2,5-diazabicyclo(2.2.1)hept-2-yl]-6-fluoro-1,4-dihydro-4-oxo-1,8-naphthyridine-3-carboxylic acid, monohydrochloride] | – | – | – | – | – | – | – | –
11 | 0.4 | 1.6 | 1.6 | 0.2 | 1.6 | 1.6 | < 0.1 | 1.6 | 0.4 | 0.4 | CCn1cc(C(=O)O)c(=O)c2cc(F)c(N3CC4CCC3CN4C)nc21.Cl (stereo not drawn) [Ex. 10a, 1-Ethyl-6-fluoro-7-(5-methyl-2,5-diazabicyclo[2.2.2]oct-2-yl)-1,4-dihydro-4-oxo-1,8-naphthyridine-3-carboxylic acid hydrochloride] | – | – | – | – | – | – | – | –
12 | 0.05 | 0.4 | 0.4 | 0.025 | 0.2 | 0.4 | 0.1 | 0.4 | 0.05 | 0.1 | CN1CC2CC1CN2c1c(F)cc2c(=O)c(C(=O)O)cn(C3CC3)c2c1F.Cl (stereo not drawn) [Ex. 10c, 1-cyclopropyl-6,8-difluoro-1,4-dihydro-7-(5-methyl-2,5-diazabicyclo[2.2.1]hept-2-yl)-4-oxo-3-quinolinecarboxylic acid monohydrochloride] | – | – | – | – | – | – | – | –
